ChEMBL document CHEMBL1124880 (J Med Chem, 1990)

Columns and labels:
Rattus norvegicus = organism: Rattus norvegicus; assay: Minimal effective dose in an rat anti-immobility effect using behavioral despair test; assay type: functional; settings: read-out: MED
Adenosine receptor A1 = molecular target: T1, Adenosine receptor A1 (Rattus norvegicus, UniProt P25099); assay: Binding affinity towards the adenosine A1 receptor in cerebral cortices of Sprague-Dawley male rats using [3H]CHA as radioligand.
T1 sequence (P25099 whole entry): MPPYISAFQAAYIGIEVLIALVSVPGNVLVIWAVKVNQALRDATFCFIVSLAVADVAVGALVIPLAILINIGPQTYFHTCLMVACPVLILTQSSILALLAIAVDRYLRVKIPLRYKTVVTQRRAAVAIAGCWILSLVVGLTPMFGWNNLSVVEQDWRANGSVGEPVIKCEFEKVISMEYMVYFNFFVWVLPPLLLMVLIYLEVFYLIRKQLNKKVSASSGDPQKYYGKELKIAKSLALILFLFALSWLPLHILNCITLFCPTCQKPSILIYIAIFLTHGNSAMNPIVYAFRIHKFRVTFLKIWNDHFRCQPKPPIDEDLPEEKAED

Adenosine A2 receptor = Adenosine A2 receptor (Rattus norvegicus, UniProt P29276+P30543)

IC50 (Adenosine receptor A1) [µM] | SMILES | minimal effective dose (Rattus norvegicus) [mg/kg] | IC50 (Adenosine A2 receptor) [µM]
– | CCNc1nc2cc(F)ccc2n2c(CC)nnc12 | ≤ 32 | –
2.2 | CCNc1nc2ccccc2n2c(C(C)C)nnc12 | ≤ 32 | –
– | CCc1nnc2c(NC(C)=O)nc3ccc(F)cc3n12 | ≤ 3.2 | –
– | CCN(CC)c1nc2ccc(F)cc2n2c(C(F)(F)F)nnc12 | > 32 | –
6.5 | CCc1nnc2c(N(CC)CC)nc3ccc(Cl)cc3n12 | ≤ 32 | –
0.84 | Nc1nc2ccc(F)cc2n2c(O)nnc12 | 10 | 0.7
– | CC(=O)Nc1nc2ccc(Cl)cc2n2c(C)nnc12 | 3.2 | –
6 | CCc1nnc2c(NC)nc3ccccc3n12 | 3.2 | –
– | CCNc1nc2ccc(Cl)cc2n2c(C(F)(F)F)nnc12 | ≤ 32 | –
– | Clc1ccc2nc(N3CCNCC3)c3nncn3c2c1 | > 32 | –
– | CCNc1nc2ccccc2n2c(C(F)(F)F)nnc12 | 32 | –
– | CC(=O)N(C(C)=O)c1nc2ccc(Cl)cc2n2cnnc12 | ≤ 32 | –
1.8 | CCc1nnc2c(NC(C)=O)nc3ccc(Cl)cc3n12 | 1 | –
0.7 | CCNc1nc2ccc(F)cc2n2c(CC)nnc12 | 3.2 | –
– | CCc1nnc2c(N(C(C)=O)C(C)C)nc3ccc(Cl)cc3n12 | 10 | –
– | CN(C)CCCN1c2ccccc2CCc2ccccc21 [IMIPRAMINE] | > 17.8 | –
3.5 | CCc1nnc2c(N3CCCCC3)nc3ccccc3n12 | 10 | –
– | c1ccc2c(c1)nc(N1CCOCC1)c1nncn12 | > 32 | –
– | CCc1nnc2c(N3CCCC3=O)nc3ccccc3n12 | > 32 | –
0.63 | CC(=O)Nc1nc2ccc(Cl)cc2n2c(C(F)(F)F)nnc12 | ≤ 3.2 | –
> 10 | CCN(CC)c1nc2ccc(F)cc2n2cnnc12 | 3.2 | –
– | CCN(CC)c1nc2ccc(OC)cc2n2cnnc12 | > 32 | –
– | CC(=O)Nc1nc2ccccc2n2cnnc12 | ≤ 32 | –
– | CCc1nnc2c(N(CC)CC)nc3cc(Cl)ccc3n12 | 10 | –

IC50 (Adenosine receptor A1) [µM] | SMILES | minimal effective dose (Rattus norvegicus) [mg/kg] | IC50 (Adenosine A2 receptor) [µM]
1.6 | CCc1nnc2c(NCCO)nc3ccccc3n12 | ≤ 32 | –
0.85 | Cc1nnc2c(NC(C)C)nc3ccccc3n12 | 10 | –
0.1 | Cc1nnc2c(NC(C)C)nc3ccc(Cl)cc3n12 | 3.2 | –
19 | CC(C)(C)Nc1nc2ccccc2n2cnnc12 | > 32 | –
10 | CCc1nnc2c(N3CCCC3)nc3ccccc3n12 | > 3.2 | –
– | CCc1nnc2c(N3CCNCC3)nc3cc(Cl)c(Cl)cc3n12 | ≤ 32 | –
9.3 | CCc1nnc2c(N(C(C)=O)C(C)=O)nc3ccccc3n12 | 3.2 | –
– | CCc1nnc2c(NC(C)=O)nc3ccccc3n12 | 1 | –
– | CCN(CC)c1nc2cc(Br)c(Br)cc2n2cnnc12 | > 32 | –
– | CCCC(=O)Nc1nc2ccc(Cl)cc2n2c(CC)nnc12 | ≤ 32 | –
– | COc1ccc2c(c1)nc(NC(C)C)c1nncn12 | > 32 | –
> 10 | CCN(CC)c1nc2ccccc2n2c(C)nnc12 | 3.2 | –
> 100 | O=C1CCCN1c1nc2ccccc2n2cnnc12 | > 32 | –
4.7 | CCNc1nc2cc(F)c(F)cc2n2cnnc12 | 3.2 | –
– | CC(=O)Nc1nc2ccc(F)cc2n2cnnc12 | ≤ 32 | –
– | CCCc1nnc2c(N(CC)CC)nc3ccccc3n12 | ≤ 32 | –
49 | Cc1nnc2c(N3CCCC3)nc3ccccc3n12 | > 32 | –
– | CCc1nnc2c(N(CC)CC)nc3ccc(OC)cc3n12 | ≤ 32 | –
59 | CN(C)c1nc2ccccc2n2cnnc12 | ≤ 32 | –
100 | CNc1nc2ccccc2n2cnnc12 | 32 | –
≥ 100 | CCCN(CCC)c1nc2ccccc2n2cnnc12 | > 32 | –
– | CN(C)c1nc2ccc(F)cc2n2cnnc12 | ≤ 32 | –
17 | CCN(CC)c1nc2ccc(Cl)cc2n2c(C)nnc12 | ≤ 32 | –
100 | c1ccc2c(c1)nc(N1CCCCC1)c1nncn12 | > 32 | –

SMILES | IC50 (Adenosine receptor A1) [µM] | minimal effective dose (Rattus norvegicus) [mg/kg] | IC50 (Adenosine A2 receptor) [µM]
Nc1nc2ccc(Cl)cc2n2c(-c3ccccc3)nnc12 | 0.27 | > 32 | 0.021
